Source: patent publication US8865734B2 (priority 2010, dated 2014)
Values after ≈ are worked out from the molar mass of the structure shown.

Columns and labels:
[1] = tested on: in vitro grown Mycobacteria (M. tuberculosis); experiment: QUM: Quantification of in vitro grown Mycobacteria (in vitro growth fluorescence assay); format: cell-based; details: Mycobacterium tuberculosis; MIC, 80% bacterial growth inhibition; in vitro growth; read-out: QUM
In short: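 Mycobacterium tuberculosis grown in vitro was quantified by fluorescence across compound dose responses. MIC is defined as the minimum concentration producing 80% growth inhibition.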

[2] = tested on: M. tuberculosis inside the host macrophage; experiment: QIM: Quantification of Intracellular Mycobacteria (intracellular growth assay, phenotypic cell-based); details: Mycobacterium tuberculosis; MIC, 80% bacterial growth inhibition; intracellular growth; read-out: QIM
Description: Accordingly, a phenotypic cell-based assay, suitable for high throughput screening, which allows for the search of compounds that would prevent M. tuberculosis multiplication inside the host macrophage was utilized (WO2010003533A2), overcoming many of the numerous and burdensome steps involved in previous methodologies (Arain et al., 1996).
A 120,000 small molecule compound library was screened using a validated phenotypic cell-based assay (WO2010003533A2). Active compounds from the primary screen were confirmed via dose response in the intracellular (QIM) assay and an in vitro (QUM) assay, wherein the abbreviation “QIM” stands for Quantification of Intracellular Mycobacteria and the abbreviation “QUM” stands for Quantification of in vitro grown Mycobacteria. […] The MIC is the minimum concentration of compound required to obtain 80% bacterial growth inhibition.
The imidazopyridine compounds (scaffolds Ia and Ib; see Table 1) underwent derivatization according to the methods outlined below (Schemes 1-13). Resulting derivatives were examined for inhibitory activity (MIC) using the assays described above (Example 1) and the results are summarized in Table 1.

| Compound | MIC [1] [µM] | MIC [2] [µM] |
| --- | --- | --- |
| CCc1nc2ccc(Cl)cn2c1C(=O)NCc1ccc(OCc2ccc(F)cc2)cc1 [Compound 202, 6-Chloro-2-ethyl-N-(4-(4-fluorobenzyloxy)benzyl)imidazo[1,2-a]pyridine-3-carboxamide] | < 1 | < 1 |
| CCc1nc2cc(Cl)ccn2c1C(=O)NCc1ccc(Oc2ccc(OC(F)(F)F)cc2)nc1 [Compound 195, 7-Chloro-2-ethyl-N-((6-(4-(trifluoromethoxy)phenoxy)pyridin-3-yl)methyl)imidazo[1,2-a]pyridine-3-carboxamide] | 1 to 20 (≈ 0.491 to 9.82 µg/mL) | 1 to 20 (≈ 0.491 to 9.82 µg/mL) |
| CCc1nc2ccc(Cl)cn2c1C(=O)NCC1CCCc2c1cnn2-c1ccc(F)cc1 (stereo not drawn) [Compound 238, 6-Chloro-2-ethyl-N-((1-(4-fluorophenyl)-4,5,6,7-tetrahydro-1H-indazol-4-yl)methyl) imidazo[1,2-a]pyridine-3-carboxamide] | > 20 | > 20 |
| CCc1nc2cc(Cl)ccn2c1NC(=O)Cc1ccc(-c2ccccc2)cc1 [Compound 143, 2-(Biphenyl-4-yl)-N-(7-chloro-2-ethylimidazo[1,2-a]pyridin-3-yl)acetamide] | 1 to 20 (≈ 0.39 to 7.8 µg/mL) | < 1 |
| CCc1nc2ccc(Cl)cn2c1C(=O)NCc1ccc(N2CCCCC2)cc1 [Compound 79, 6-Chloro-2-ethyl-N-(4-(piperidin-1-yl)benzyl)imidazo[1,2-a]pyridine-3-carboxamide] | < 1 | < 1 |
| CCc1nc2cc(Cl)ccn2c1C(=O)NCc1ccc(-c2ccc(F)cc2)cc1 [Compound 116, 7-Chloro-2-ethyl-N-((4′-fluorobiphenyl-4-yl)methyl)imidazo[1,2-a]pyridine-3-carboxamide] | < 1 | < 1 |
| CCc1nc2ccc(Cl)cn2c1C(=O)NCc1ccc(-c2ccc(Cl)cc2C(F)(F)F)cc1 [Compound 129, 6-Chloro-N-((4′-chloro-2′-(trifluoromethyl)biphenyl-4-yl)methyl)-2-ethylimidazo[1,2-a]pyridine-3-carboxamide] | < 1 | < 1 |
| CCc1nc2cc(N3CCN(c4ccc(F)cc4)CC3)ccn2c1C(=O)NCc1ccc(N2CCOCC2)cc1 [Compound 329, 2-Ethyl-7-(4-(4-fluorophenyl)piperazin-1-yl)-N-(4-morpholinobenzyl)imidazo[1,2-a]pyridine-3-carboxamide] | > 20 | > 20 |
| CCc1nc2cc(Cl)ccn2c1C(=O)NCc1ccc(C(C)(C)C)cc1 [Compound 92, N-(4-tert-Butylbenzyl)-7-chloro-2-ethylimidazo[1,2-a]pyridine-3-carboxamide] | < 1 | < 1 |
| Cc1nc2ccccn2c1C(=O)Nc1ccncc1 [Compound 5, 2-Methyl-N-(pyridin-4-yl)imidazo[1,2-a]pyridine-3-carboxamide] | > 20 | > 20 |
| CCc1nc2ccc(Br)cn2c1C(=O)NCc1ccc(Oc2ccc(F)cc2)cc1 [Compound 189, 6-Bromo-2-ethyl-N-(4-(4-fluorophenoxy)benzyl)imidazo[1,2-a]pyridine-3-carboxamide] | < 1 | < 1 |
| CCc1nc2cc(Cl)ccn2c1C(=O)NCc1ccc(N2CC=CCC2)cc1 [Compound 213, 7-Chloro-N-(4-(5,6-dihydropyridin-1(2H)-yl)benzyl)-2-ethylimidazo[1,2-a]pyridine-3-carboxamide] | < 1 | 1 to 20 (≈ 0.395 to 7.9 µg/mL) |
| CCc1nc2cc(Cl)ccn2c1C(=O)NCc1ccc(-c2ccncc2)cc1 [Compound 134, 7-Chloro-2-ethyl-N-(4-(pyridin-4-yl)benzyl)imidazo[1,2-a]pyridine-3-carboxamide] | 1 to 20 (≈ 0.391 to 7.82 µg/mL) | < 1 |
| Cc1nc2c(C(F)(F)F)cccn2c1C(=O)NCc1ccccc1 [Compound 40, N-Benzyl-2-methyl-8-(trifluoromethyl)imidazo[1,2-a]pyridine-3-carboxamide] | > 20 | > 20 |
| CCCc1nc2ccccn2c1C(=O)NCc1ccc(-c2ccccc2)cc1 [Compound 49, N-(Biphenyl-4-ylmethyl)-2-propylimidazo[1,2-a]pyridine-3-carboxamide] | < 1 | < 1 |
| CCc1nc2ccc(Cl)cn2c1C(=O)NCc1ccc(-c2ccc(C#N)cc2)cc1 [Compound 121, 6-Chloro-N-((4′-cyanobiphenyl-4-yl)methyl)-2-ethylimidazo[1,2-a]pyridine-3-carboxamide] | < 1 | < 1 |
| O=C(NCc1ccc(-c2ccccc2)cc1)c1c(C(F)(F)F)nc2ccc(Cl)cn12 [Compound 99, N-(Biphenyl-4-ylmethyl)-6-chloro-2-(trifluoromethyl)imidazo[1,2-a]pyridine-3-carboxamide] | < 1 | < 1 |
| Cc1nc2c(C)cccn2c1C(=O)NCc1ccccc1 [Compound 30, N-Benzyl-2,8-dimethylimidazo[1,2-a]pyridine-3-carboxamide] | > 20 | > 20 |
| CCc1nc2cc(Cl)ccn2c1C(=O)NCc1ccc(-c2ccc(F)cc2Cl)cc1 [Compound 133, 7-Chloro-N-((2′-chloro-4′-fluorobiphenyl-4-yl)methyl)-2-ethylimidazo[1,2-a]pyridine-3-carboxamide] | < 1 | < 1 |
| O=C(NCc1ccccc1)c1c(C2CC2)nc2ccccn12 [Compound 50, N-Benzyl-2-cyclopropylimidazo[1,2-a]pyridine-3-carboxamide] | 1 to 20 (≈ 0.291 to 5.83 µg/mL) | 1 to 20 (≈ 0.291 to 5.83 µg/mL) |
| CCc1nc2cc(Cl)ccn2c1C(=O)NCc1ccc(-c2ccc(Cl)cc2)cc1 [Compound 95, 7-Chloro-N-((4′-chlorobiphenyl-4-yl)methyl)-2-ethylimidazo[1,2-a]pyridine-3-carboxamide] | < 1 | < 1 |
| CCc1nc2ccc(Cl)cn2c1C(=O)NCc1ccc(N2CCN(Cc3ccc(F)cc3)CC2)cc1 [Compound 171, 6-Chloro-2-ethyl-N-(4-(4-(4-fluorobenzyl)piperazin-1-yl)benzyl)imidazo[1,2-a]pyridine-3-carboxamide] | < 1 | < 1 |
| CCc1nc2ccc(Cl)cn2c1C(=O)NCc1ccc(-c2cccc(C#N)c2)cc1 [Compound 127, 6-Chloro-N-((3′-cyanobiphenyl-4-yl)methyl)-2-ethylimidazo[1,2-a]pyridine-3-carboxamide] | > 20 | < 1 |
| CCc1nc2cc(Cl)ccn2c1C(=O)NCc1ccc(Cl)cc1 [Compound 87, 7-Chloro-N-(4-chlorobenzyl)-2-ethylimidazo[1,2-a]pyridine-3-carboxamide] | < 1 | < 1 |
| CCc1nc2cc(Cl)ccn2c1C(=O)NCc1ccc(-c2cccc(C#N)c2)cc1 [Compound 128, 7-Chloro-N-((3′-cyanobiphenyl-4-yl)methyl)-2-ethylimidazo[1,2-a]pyridine-3-carboxamide] | > 20 | < 1 |
| COc1cccn2c(C(=O)NCc3ccccc3)c(C)nc12 [Compound 41, N-Benzyl-8-methoxy-2-methylimidazo[1,2-a]pyridine-3-carboxamide] | > 20 | > 20 |
| Cc1nc2ccccn2c1C(=O)NCc1ccc(C(=O)O)cc1 [Compound 11, 4-((2-Methylimidazo[1,2-a]pyridine-3-carboxamido)methyl)benzoic acid] | > 20 | > 20 |
